Structures can show the parent of a compound that is named as a salt.

For the first assay, the system named is ATGL-KO iPSCs. In words: High throughput iPSC chemical screening, Oil Red O (ORO) lipid accumulation. As to Z-score: test concentration or dose not given here. The class given is cell-based, mouse. Conditions: glycolytic switch compounds.
Consider `CC1CC(OC(=O)c2ccccc2O)CC(C)(C)C1` (centres unmarked) [Homosalate], for which the “Rank in normalized ORO score from screen” value came out at 320.

Staying with this assay, now noted: normalized ORO level vs DMSO-treated cells; compound present during 7 days differentiation, 96-well; negative = decrease in lipid accumulation.
With `CO[C@H](C)[C@](O)(C(=O)OCC1=CCN2CC[C@H](O)[C@@H]12)C(C)C` [Heliotrine], the Z-score is listed as −1.2812.
The same measure, in the same setting: to `C[N+]1(C)CCOC(O)(c2ccc(-c3ccc(C4(O)C[N+](C)(C)CCO4)cc3)cc2)C1.[Br-].[Br-]` (centres unmarked) [Hemicholinium bromide] belongs 2.91; to `CC(N)CCCC(C)(C)O` (centres unmarked) [Heptaminol hydrochloride], −0.2987.
On the same count and under the same terms, under `COc1ccc([C@@H]2CC(=O)c3c(O)cc(O)cc3O2)cc1O` [Hesperetin] stands −1.3358.
Still for that read-out and setting: under `COc1ccc([C@@H]2CC(=O)c3c(O)cc(O[C@@H]4O[C@H](CO[C@@H]5O[C@@H](C)[C@H](O)[C@@H](O)[C@H]5O)[C@@H](O)[C@H](O)[C@H]4O)cc3O2)cc1O` [Hesperidin] stands 2.254; under `C[N+](C)(C)CCCCCC[N+](C)(C)C.O.O.[Br-].[Br-]` [Hexamethonium dibromide dihydrate], −0.5997.
As to `CC[C@H](c1ccc(O)cc1)[C@@H](CC)c1ccc(O)cc1` [Hexestrol], the Z-score is −1.0339.
In turn, `CCCCC(CC)CN1CN(CC(CC)CCCC)CC(C)(N)C1` (centres unmarked) [Hexetidine] showed a Z-score of 1.396.
The same measure, in the same setting: to `CC(CNC1CCCCC1)OC(=O)c1ccccc1` (centres unmarked) [Hexylcaine hydrochloride] belongs 0.687; to `CN1CCC2=C[C@H](O)[C@H]3OC(=O)c4cc5c(cc4[C@H]3[C@@H]21)OCO5` [Hippeastrine hydrobromide], −1.1441.
Regarding `CN1CCCN(C(c2ccccc2)c2ccc(Cl)cc2)CC1` (centres unmarked) [Homochlorcyclizine dihydrochloride], the Z-score was −0.8178.
Regarding `CC1CC(OC(=O)c2ccccc2O)CC(C)(C)C1` (centres unmarked) [Homosalate], the Z-score is −0.7744.
Same read-out and setting: under `CCN(CC)CCNc1ccc(CO)c2sc3ccccc3c(=O)c12` [Hycanthone] stands 20.1467; under `NNc1nncc2ccccc12` [Hydralazine hydrochloride], 9.342; under `COc1ccc2c(c1OC)C(=O)O[C@@H]2[C@H]1c2cc3c(cc2CCN1C)OCO3` [Hydrastine hydrochloride], −0.3277.
The same measure, in the same setting: under `CN1CCc2cc3c(cc2C1O)OCO3` (centres unmarked) [Hydrastinine hydrochloride] stands −0.5549; under `NS(=O)(=O)c1cc2c(cc1Cl)NCNS2(=O)=O` [Hydrochlorothiazide], 1.18.
On the same count and under the same terms, under `C[C@]12CCC(=O)C=C1CC[C@@H]1[C@@H]2[C@@H](O)C[C@@]2(C)[C@H]1CC[C@]2(O)C(=O)CO` [Hydrocortisone base] stands −0.2176; under `COc1c2c(cc3c1OCO3)CCN(C)C2` [Hydrocotarnine hydrobromide], −0.8038; under `NS(=O)(=O)c1cc2c(cc1C(F)(F)F)NCNS2(=O)=O` [Hydroflumethiazide], 0.1855.
With `CC[C@H]1CN2CC[C@H]1C[C@H]2[C@H](O)c1ccnc2ccc(OC)cc12` [Hydroquinine hydrobromide hydrate], the Z-score was 1.2243.
The same measure, in the same setting: under `OCCOCCN1CCN(C(c2ccccc2)c2ccc(Cl)cc2)CC1` (centres unmarked) [Hydroxyzine dihydrochloride] stands −0.9071; under `Cc1cc(=O)oc2cc(O)ccc12` [Hymecromone], −0.7731.
Molecule `CN1[C@@H]2CC[C@H]1C[C@@H](OC(=O)[C@H](CO)c1ccccc1)C2` [Hyoscyamine (L)] displayed a Z-score of 1.204.
On the same count and under the same terms, under `c1ccc2c(c1)OCC(C1=NCCN1)O2` (centres unmarked) [Idazoxan hydrochloride] stands −1.447; under `O=c1[nH]c(=O)n([C@H]2C[C@H](O)[C@@H](CO)O2)cc1I` [Idoxuridine], −1.0734.
With `O=P1(NCCCl)OCCCN1CCCl` (centres unmarked) [Ifosfamide], the Z-score is −1.424.
Still for that read-out and setting: to `O=C(NCNC(=O)NC1C(=O)NC(=O)N1CO)NC1C(=O)NC(=O)N1CO` (centres unmarked) [Imidurea] belongs 0.2567.
On the same count and under the same terms, to `C[C@@H](O)[C@H]1C(=O)N2C(C(=O)O)=C(SCCN=CN)C[C@H]12` [Imipenem] belongs −0.7436; to `CN(C)CCCN1c2ccccc2CCc2ccccc21` [Imipramine hydrochloride], 1.459; to `CC1Cc2ccccc2N1NC(=O)c1ccc(Cl)c(S(N)(=O)=O)c1` (centres unmarked) [Indapamide], −0.6747.
Still for that read-out and setting: under `COc1ccc2c(c1)c(CC(=O)O)c(C)n2C(=O)c1ccc(Cl)cc1` [Indomethacin] stands −0.7862.
Turning to `CC(C(=O)O)c1ccc(N2Cc3ccccc3C2=O)cc1` (centres unmarked) [Indoprofen], the Z-score is −1.4204.
Same read-out and setting: under `CC(=O)N(CC(C)C(=O)O)c1c(I)cc(I)c(N)c1I` (centres unmarked) [Iocetamic acid] stands −1.5742; under `O=C(CCCCC(=O)Nc1c(I)cc(I)c(C(=O)O)c1I)Nc1c(I)cc(I)c(C(=O)O)c1I` [Iodipamide], −0.3225; under `CC(=O)N(CC(O)CO)c1c(I)c(C(=O)NCC(O)CO)c(I)c(C(=O)NCC(O)CO)c1I` (centres unmarked) [Iohexol], −1.1016.
The same measure, in the same setting: under `C[C@H](O)C(=O)Nc1c(I)c(C(=O)NC(CO)CO)c(I)c(C(=O)NC(CO)CO)c1I` [Iopamidol] stands 1.108; under `CCC(Cc1c(I)cc(I)c(N)c1I)C(=O)O` (centres unmarked) [Iopanoic acid], −0.7767; under `COCC(=O)Nc1c(I)c(C(=O)NCC(O)CO)c(I)c(C(=O)N(C)CC(O)CO)c1I` (centres unmarked) [Iopromide], 0.2481.
Still for that read-out and setting: under `O=C(NCC(O)CO)c1c(I)c(C(=O)NCC(O)CO)c(I)c(N(CCO)C(=O)CO)c1I` (centres unmarked) [Ioversol] stands 0.08392; under `CNC(=O)c1c(I)c(C(=O)NCC(=O)Nc2c(I)c(C(=O)O)c(I)c(C(=O)NCCO)c2I)c(I)c(N(C)C(C)=O)c1I` [Ioxaglic acid], −0.54.
For `CC(C)[N+]1(C)[C@@H]2CC[C@H]1CC(OC(=O)C(CO)c1ccccc1)C2.[Br-]` (some centres unmarked) [Ipratropium bromide], the Z-score is listed as −0.1032.
The same measure, in the same setting: to `Cc1cc(C(=O)NNCc2ccccc2)no1` [Isocarboxazid] belongs 1.91; to `Clc1ccc(C(Cn2ccnc2)OCc2c(Cl)cccc2Cl)c(Cl)c1` (centres unmarked) [Isoconazole], −1.2562.
Turning to `COc1ccc2c(c1O)-c1c(OC)c(OC)cc3c1[C@H](C2)N(C)CC3` [Isocorydine (+)], the Z-score was −0.7668.
On to `CC(=O)OCC(=O)[C@@]1(O)CC[C@H]2[C@@H]3CCC4=CC(=O)C=C[C@]4(C)[C@@]3(F)[C@@H](O)C[C@@]21C` [Isoflupredone acetate], for which the Z-score is given as 1.55.
Turning to `CNC(C)CCC=C(C)C.CNC(C)CCC=C(C)C.O=C(O)[C@@H](O)[C@H](O)[C@H](O)[C@@H](O)C(=O)O` [Isometheptene mucate], the Z-score worked out at 0.6197.
On the same count and under the same terms, under `NNC(=O)c1ccncc1` [Isoniazid] stands 0.9473; under `CC(C)[N+](C)(CCC(C(N)=O)(c1ccccc1)c1ccccc1)C(C)C` [Isopropamide iodide], −0.2928.
Still for that read-out and setting: under `Cc1c(NC(C)C)c(=O)n(-c2ccccc2)n1C.Cl` [Isopyrin hydrochloride] stands 0.0325; under `CC1=C(/C=C/C(C)=C/C=C/C(C)=C\C(=O)O)C(C)(C)CCC1` [Isotretinoin], −1.1597; under `Cc1cc(NC(=O)C2=C(O)c3ccccc3S(=O)(=O)N2C)no1` [Isoxicam], −0.7646.
The same measure, in the same setting: under `CC(COc1ccccc1)NC(C)C(O)c1ccc(O)cc1` (centres unmarked) [Isoxsuprine hydrochloride] stands 0.3014; under `COC(=O)C1=C(C)NC(C)=C(C(=O)OC(C)C)C1c1cccc2nonc12` (centres unmarked) [Isradipine], 0.2737; under `CC[C@H](C)[C@H]1O[C@]2(CC[C@@H]1C)C[C@@H]1C[C@@H](C/C=C(\C)[C@@H](O[C@H]3C[C@H](OC)[C@@H](O[C@H]4C[C@H](OC)[C@@H](O)[C@H](C)O4)[C@H](C)O3)[C@@H](C)/C=C/C=C3\CO[C@@H]4[C@H](O)C(C)=C[C@@H](C(=O)O1)[C@]34O)O2` [Ivermectin], 0.9419.
As for `CO[C@@H]1[C@@H](O[C@@H]2O[C@H](C)[C@@H](O[C@H]3C[C@@](C)(O)[C@@H](OC(=O)CC(C)C)[C@H](C)O3)[C@H](N(C)C)[C@H]2O)[C@@H](CC=O)C[C@@H](C)[C@@H](O)/C=C/C=C/C[C@@H](C)OC(=O)C[C@H]1OC(C)=O` [Josamycin], the Z-score is −0.5964.
Still for that read-out and setting: under `O=c1c(O)c(-c2ccc(O)cc2)oc2cc(O)cc(O)c12` [Kaempferol] stands −0.0374.
With `NC[C@H]1O[C@H](O[C@H]2[C@H](O)[C@@H](O[C@H]3O[C@H](CO)[C@@H](O)[C@H](N)[C@H]3O)[C@H](N)C[C@@H]2N)[C@H](O)[C@@H](O)[C@@H]1O.O=S(=O)(O)O` [Kanamycin A sulfate], the Z-score worked out at 2.436.
The same measure, in the same setting: under `CCN1C[C@]2(C)CC[C@H](O)[C@]34C1[C@@H](C[C@H]23)[C@@]1(O)C[C@H](OC)[C@H]2C[C@@H]4[C@@H]1[C@H]2O` [Karakoline] stands −1.4178; under `COC1=CC(=O)O[C@@H](/C=C/c2ccccc2)C1` [Kawain], −0.5048; under `CC(=O)N1CCN(c2ccc(OCC3COC(Cn4ccnc4)(c4ccc(Cl)cc4Cl)O3)cc2)CC1` (centres unmarked) [Ketoconazole], 1.224.
In the case of `CC(C(=O)O)c1cccc(C(=O)c2ccccc2)c1` (centres unmarked) [Ketoprofen], the Z-score is recorded as −0.219.
On the same count and under the same terms, under `O=C(c1ccccc1)c1ccc2n1CCC2C(=O)O` (centres unmarked) [Ketorolac tromethamine] stands −0.8373.
The same measure, in the same setting: to `CN1CCC(=C2c3ccccc3CC(=O)c3sccc32)CC1` [Ketotifen fumarate] belongs 0.5681.
Regarding `COc1c2occc2c(OC)c2c(=O)cc(C)oc12` [Khellin], the Z-score is on record as −0.1533.
On the same count and under the same terms, to `Cl.OC1CCCCC1N1CCC(c2ccccc2)CC1` (stereo not drawn) [L(−)-vesamicol hydrochloride] belongs −1.6146.
The same measure, in the same setting: to `CC(CCc1ccccc1)NCC(O)c1ccc(O)c(C(N)=O)c1` (centres unmarked) [Labetalol hydrochloride] belongs −1.5017.
